In the assay the test system is Plasmodium falciparum. Kind of assay: GSK_TCMDC: Inhibition of Plasmodium falciparum 3D7 in whole erythrocytes, using parasite LDH activity as an index of growth. It is filed as functional, organism-based. The conditions noted are these: Plasmodium falciparum, 3D7.

The compound `CC(C)CCNC(=O)C1Cc2c([nH]c3cc(Br)ccc23)C2(CCN(CCc3ccccc3)CC2)N1` (stereo not drawn) came in with an XC50 of 910 nM. Compound `CCCCCCP(=O)(COc1ccc(CCN(CC(O)COc2cccc3[nH]c(C(N)=O)cc23)CC(O)COc2cccc3[nH]c(C(N)=O)cc23)cc1)OCCCC` (stereo not drawn) registered an XC50 of 724 nM. To `CC(CN1CCN(C)CC1)C(=O)Nc1cccc(-c2ccc(-c3nc4ccccc4[nH]3)cc2)c1` (stereo not drawn) belongs 943 nM; to `COCCNCc1ccc(-c2ccc(CNc3ccc4ncccc4c3)cc2)cc1`, 1040 nM; to `Cc1cc2ccc(/C=C/C(=O)NC3CCC(CCN4CCc5ccc(C#N)cc5CC4)CC3)cc2[nH]1` (stereo not drawn), 941 nM.

On to `O=C(Nc1cccc(OC2CCN(Cc3ccccc3)CC2)c1)Nc1cccc([N+](=O)[O-])c1`, for which the XC50 was 783 nM. To `CNCCNCc1cccc(-c2cccc(-c3nc4cc(F)ccc4[nH]3)c2)c1` belongs 670 nM; to `OC(CNc1cccc(Cl)c1)Cn1c2ccc(Cl)cc2c2cc(Cl)ccc21` (stereo not drawn), 958 nM; to `COc1ccc2nccc([C@@H](O)CN3CCC(NCc4ccc5c(c4)oc(=S)n5C)CC3)c2c1`, 187 nM. The compound `C#C[C@H]1O[C@@H](n2cnc3c(Nc4cc(Br)cc(C(F)(F)F)c4)ncnc32)[C@H](O)[C@@H]1O` came in with an XC50 of 1030 nM. Then `CNCCNCc1cccc(-c2ccc(-c3nc4ccccc4[nH]3)s2)c1`, with 830 nM; and `O=C(Cc1ccccc1)NC(c1ccc(Cl)cc1)c1ccc2cccnc2c1O` (stereo not drawn), with 861 nM.

On to `COc1ccc(OC)c2c1CCN(C)C2Cc1cccc2ccccc12` (stereo not drawn), for which the XC50 worked out at 1050 nM. To `CCc1ccc2c(c1O)CCN(C)C2Cc1ccccc1Cl` (stereo not drawn) belongs 251 nM; to `CCOc1ccc2nc3cc(NC(=O)c4ccco4)ccc3c(N)c2c1`, 802 nM. As for `CCC(=O)N1CCc2cc(Br)cc(S(=O)(=O)N3CC(C)CC(C)C3)c21` (stereo not drawn), the XC50 was determined as 932 nM. To `CCCCOC(=O)c1ccc(Nc2cc(C)nc3ccc(OC)cc23)cc1` belongs 640 nM; to `CC(CN(C)C)C(=O)Nc1ccc(-c2ccc(-c3nc4cc(C(F)(F)F)ccc4[nH]3)cc2)cc1` (stereo not drawn), 747 nM; to `O=C(NC1CCC(CN2CCC(c3c[nH]c4ccccc34)CC2)CC1)c1csc(-c2ccc(C(F)(F)F)cc2Cl)n1` (stereo not drawn), 827 nM. To `CC1(C)N=C(N)N=C(N)N1OCCCc1ccccc1` belongs 3.2 nM; to `Nc1nccc2ccc(-c3cccc(O)c3)cc12`, 642 nM; to `Cc1[nH]c(C)c(-c2ccc(-c3ccc4c(c3)OCO4)nc2)c(=O)c1Br`, 187 nM. `COc1cc(NC(=O)N2CCOC(CCN3CCC(c4ccccc4)CC3)(c3ccc(Cl)c(Cl)c3)C2)cc(OC)c1OC` (stereo not drawn) showed an XC50 of 65.1 nM. Then `CCC(O)c1ccc(Br)cc1NC(=O)c1cccc(Cl)c1` (stereo not drawn), with 1020 nM; and `Cc1cc(C)c2cc(CNCCCNc3nc4ccccc4[nH]3)[nH]c2c1`, with 768 nM; and `CCCCC1(NC(=O)[C@H](CC(C)C)Nc2ccc(C#N)c3ccccc23)CCCCC1`, with 799 nM.

With `CCC(NCc1ccc(-c2cncc(C(=O)NCC(C)C)c2)cc1)c1ccccc1` (stereo not drawn), the XC50 was 944 nM.

The compound `CN1CCN(CCc2ccc3nc(-c4csc(Cc5cc(Cl)ccc5OCc5ccccc5)n4)[nH]c3c2)CC1` showed an XC50 of 750 nM. Regarding `O=C(Nc1nc2ccc(Cl)cc2s1)c1csnn1`, the XC50 was determined as 786 nM.

For the compound `CCCCCCN1CCC(CNCc2cccc(Cl)c2)CC1`, the XC50 stood at 1220 nM. Then `Cc1cnc(NCC2CCCCC2)nc1N[C@@H](CO)C(=O)Nc1ccccc1`, with 1100 nM; and `O=C(Nc1ccc(OC2CCN(Cc3ccc(F)cc3)CC2)c(Cl)c1)c1ccsc1`, with 717 nM; and `Cc1cn(CC(=O)Nc2cccc(-c3cccc(-c4nc5cccc(C)c5[nH]4)c3)c2)c(=O)[nH]c1=O`, with 581 nM.

`NC1=NC(c2ccccc2)(c2ccccc2)C(=O)N1C1CCCCC1` came in with an XC50 of 661 nM. `O=C(NCCCCCN1CCC(c2c[nH]c3ccccc23)CC1)Nc1cccc(C(F)(F)F)c1` yielded an XC50 of 1000 nM.

Take `Cc1cc(CN2CCN(CCOC(c3ccccc3)c3ccccc3)CC2)ccc1O`: the XC50 is 935 nM. Regarding `CCC(C)NCc1c(O)ccc2c(CNC(C)CC)c(O)ccc12` (stereo not drawn), the XC50 was determined as 592 nM. Then `COc1ccc2c(c1)CCCC2NCCCCNC(=O)c1ccc(NC(=O)c2ccc(Cl)cc2)cc1` (stereo not drawn), with 381 nM.

Turning to `O=C(Cn1c(CCc2cccc(F)c2F)cc(=O)c2ccccc21)N(Cc1ccc(-c2ccc(C(F)(F)F)cc2)cc1)C1CCN(CCO)CC1`, the XC50 was found to be 1320 nM. Turning to `CCN(CCCN1CCCC1)c1cc(C)nc(Nc2ccc(Cl)cc2)n1`, the XC50 turned out to be 344 nM. For `COc1ccc2c(NN=Cc3ccccc3Cl)ccnc2c1`, the XC50 worked out at 622 nM.

The compound `O=C(/C=C/c1ccc(F)c(C(F)(F)F)c1)N1CCC(CN2CCC(c3c[nH]c4ccccc34)CC2)CC1` returned an XC50 of 917 nM. Consider `COCCN1CCC(C(=O)NCC(C)(C)c2nc(-c3ccc(Br)c(O)c3)c(-c3ccncc3)[nH]2)CC1`, for which the XC50 came out at 911 nM. Then `O=C(Nc1ccc(Cl)cn1)c1sc2ccccc2c1O`, with 1040 nM; and `Oc1ccc(CC2CCCN(c3nc(NCCCOc4ccccc4-c4ccccc4)nc(N4CCNCC4)n3)C2)cc1` (stereo not drawn), with 916 nM. Then `Cc1ccnc(NC(c2ccc(Cl)c([N+](=O)[O-])c2)c2ccc3cccnc3c2O)c1` (stereo not drawn), with 927 nM; and `Cn1cncc1C(=O)Nc1cccc(-c2ccc(-c3nc4cc(C(F)(F)F)ccc4[nH]3)cc2)c1`, with 509 nM. To `Nc1nc(N)c2c(Cl)c(N3CCOCC3)ccc2n1` belongs 76.9 nM; to `O=C(Nc1cccc(-c2csc(-c3nc4ccccc4[nH]3)c2)c1)c1cc(=O)c2ccccc2[nH]1`, 232 nM. In the case of `COc1ccccc1C1CCN(C2CCC(NC(=O)c3ccc4[nH]c(-c5ccc(C)cc5)nc4c3)CC2)CC1` (stereo not drawn), the XC50 came to 308 nM. Then `CCCNCc1ccc(-c2ccc(CN(CCOC)C(=O)CCc3ccc(OC)cc3)cc2)nc1`, with 981 nM.

Turning to `O=C(NCC1CCC(C(=O)NC2CCCc3ccccc32)CC1)c1ccc(O)c(-c2ccc(Cl)c(Cl)c2)c1` (stereo not drawn), the XC50 worked out at 1020 nM. Then `OC(CN1CCN(Cc2ccccc2)CC1)Cn1c(-c2ccccc2)c(-c2ccccc2)c2ccccc21` (stereo not drawn), with 711 nM.

As to `Nc1nc(N)c2cc(Cc3ccc([N+](=O)[O-])cc3)cnc2n1`, the XC50 is 943 nM. As for `COc1ccc(-c2cccc(CNC3CCN(CC4Cn5c(=O)ccc6ccc(F)c4c65)CC3)c2)cc1` (stereo not drawn), the XC50 stood at 1090 nM. Then `CC(C)N1CCC(NC(=O)N2CCCN(c3ncnc4cc(-c5ccccc5)sc34)CC2)CC1`, with 861 nM. Then `Cc1nc(C)c(-c2ccc(-c3ccc(F)cc3)cc2)c(O)c1Cl`, with 655 nM.

As for `O=C(CC(=O)Nc1cc(Cl)cc(Cl)c1)Nc1cc(Cl)cc(Cl)c1`, the XC50 stood at 159 nM.

`COc1ccc2nccc([C@@H](O)CN3CCC(NCc4ccc5c(n4)NC(=O)CS5)C(F)C3)c2c1` (stereo partly drawn) gave an XC50 of 912 nM. `CC(C)c1ccc(C=CC(=O)N2CCC(CCN3CCC(c4c[nH]c5ccccc45)CC3)CC2)cc1` came in with an XC50 of 1260 nM.

The compound `O=C(NCCCCN1CCC(c2ccc3c(c2OCCOCCO)CCCC3)CC1)c1ccc(-c2ccc(C(F)(F)F)cc2)cc1` showed an XC50 of 275 nM.

With `CC(C)CNCc1ccc(-c2ccccc2CN(C(=O)NCCc2ccccc2)C2CCN(Cc3ccccc3)CC2)cc1`, the XC50 is 878 nM. Compound `N=C1C=C(N)C(=O)c2ccccc21` yielded an XC50 of 1050 nM.

The values are drawn from ChEMBL document CHEMBL1157539, “Thousands of chemical starting points for antimalarial lead identification” (Nature, 2010).
